Results on one compound are retold here after patent US20240270793A1, “COMPOSITIONS” (UNIVERSITY OF SOUTHAMPTON, priority 2020, published 2024).

One data set deals with T1, HIF-1a (Homo sapiens, UniProt Q16665).
T1 construct: endogenous in cells; host or cells: MCF-7
Description: CETSA in MCF-7 cells. In kind it is cell-based. Conditions: observed at 51° C. and 54° C. How it is done:
The binding of 4-iodo derivative to HIF-1a was assessed by CETSA in MCF-7 cells. Stabilisation of HIF-1a by this compound can be observed at 51° C. and 54° C.
The binding of 4-iodo derivative to HIF-1a was assessed by CETSA in MCF-7 cells. Stabilisation of HIF-1a by this compound can be observed at 51° C. and 54° C. (FIG. 7).

The nature of the next data set: solubility (qualitative). It is filed as physicochemical.
For the next data set, the system named is cells. Description: commercial cell-viability assay. It is filed as cell-based. The note with it: at up to twice the tested doses. How it is done:
The 4-iodo derivative was tested in a commercial cell-viability assay, and was not toxic to cells at up to twice the tested doses.
The 4-iodo derivative was tested in a commercial cell-viability assay, and was not toxic to cells at up to twice the tested doses (FIG. 6).

A further data set concerns the target T2, HIF-1α PAS-B (238-349) (Homo sapiens, UniProt Q16665).
T2 construct: human HIF-1α PAS-B (238-349); His tag; made in house; host or cells: E. coli BL21(DE3)-Rosetta, pET28a
The experiment in a line: MST binding to recombinantly expressed HIF-1α PAS-B domain. Conditions: HIF-1α PAS-B, parent CRLIIF. How it is done: (§1) Genes encoding for human HIF-1α PAS-B (238-349) and HIF-2α PAS-B (240-350) were each cloned into pET28a vectors at the BamHI and SacI restriction sites. The recombinant plasmids were next transformed into BL21(DE3)-Rosetta chemically competent cells. Cells were grown in LB media at 37° C. to an OD600 of 0.7, after which expression was induced by addition of 0.5 mM IPTG. Following overnight expression at 16° C., cells were pelleted and resuspended in buffer containing 50 mM Tris, 150 mM NaCl, 5% glycerol, 1 mM TCEP, protease inhibitors (Roche) and 20 mM imidazole, pH 8.0. Cells were lysed by sonication, and the supernatant applied to a 1 mL Histrap FF affinity column. The His-tagged protein of interest was eluted with buffer containing 50 mM Tris, 150 mM NaCl, 5% glycerol, 1 mM TCEP and 250 mM imidazole. The protein was then loaded onto a HiLoad 16/600 superdex 75 pg size exclusion column (GE healthcare) equilibrated with assay buffer containing 50 mM Tris, 150 mM NaCl, 5% glycerol and 1 mM TCEP, pH 8.0. Fractions containing the desired protein were flash-frozen and stored at −80° C. prior to use.
HIF-α proteins were labelled with Monolith NT-647 labelling dye (Nanotemper Technologies GmbH) according to the manufacturer's instructions. MST experiments were performed on a Monolith NT.115 system (Nanotemper Technologies GmbH), in assay buffer containing 50 nM labelled protein, 10% DMSO and 0.05% TWEEN-20. MST measurements were performed using 50% LED and 50% MST power.

The target in the next data set is T3, HIF-2α PAS-B (240-350) (Homo sapiens, UniProt Q99814).
T3 construct: HIF-2α PAS-B (240-350); His tag; made in house; host or cells: E. coli BL21(DE3)-Rosetta, pET28a
Description: MST binding to recombinantly expressed HIF-2α PAS-B domain. Conditions: HIF-2α PAS-B vs HIF-1α PAS-B. How it is done: The three lead peptides were next chemically synthesised, using Fmoc-solid phase peptide synthesis methodology, followed by in-solution cyclisation under high dilution conditions.
as §1, with “use. […]” for “use.”

The subject of data set [1] is HRE-controlled YFP expression in T-REx-293 cell line. Description: YFP reporter assay (YFP under control of three HRE copies) in hypoxia. It is filed as cell-based. Conditions: YFP-reporter HEK cell line, various doses. How it is done: The effect of the cyclic peptides on cellular systems was assessed. A cell-based assay was developed in which the expression of yellow fluorescent protein (YFP) was put under the control of the HRE. A cassette was designed containing the YFP gene preceded by three copies of the HRE sequence. This cassette in turn was stably integrated into the chromosome of T-REX-293 cell line as described previously. […] In these cells, hypoxia results in increased expression of YFP (directly by HIF), so a HIF inhibitor would be expected to reduce the fluorescence of these cells when incubated in hypoxia.
Following in vitro characterisation and optimisation of binding, the effect of the cyclic peptides on cellular systems was assessed. A cell-based assay was developed in which the expression of yellow fluorescent protein (YFP) was put under the control of the HRE. A cassette was designed containing the YFP gene preceded by three copies of the HRE sequence. This cassette in turn was stably integrated into the chromosome of T-REx-293 cell line as described previously.^12
In these cells, hypoxia results in increased expression of YFP (directly by HIF), so a HIF inhibitor would be expected to reduce the fluorescence of these cells when incubated in hypoxia.
In general terms: A reporter such as luciferase makes a cellular process visible.

pIC50: −log10 of the molar value. Square brackets hold non-standard residues; d marks the D form. Peptide text beside a SMILES is read from it. Phe(4-I) = N[C@@H](Cc1ccc(I)cc1)C(=O)O

T3 sequence (Q99814 240-350): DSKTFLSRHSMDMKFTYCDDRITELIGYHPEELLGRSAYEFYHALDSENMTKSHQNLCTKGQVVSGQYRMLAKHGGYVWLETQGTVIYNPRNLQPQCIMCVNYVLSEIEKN
T1 sequence (Q16665 whole entry): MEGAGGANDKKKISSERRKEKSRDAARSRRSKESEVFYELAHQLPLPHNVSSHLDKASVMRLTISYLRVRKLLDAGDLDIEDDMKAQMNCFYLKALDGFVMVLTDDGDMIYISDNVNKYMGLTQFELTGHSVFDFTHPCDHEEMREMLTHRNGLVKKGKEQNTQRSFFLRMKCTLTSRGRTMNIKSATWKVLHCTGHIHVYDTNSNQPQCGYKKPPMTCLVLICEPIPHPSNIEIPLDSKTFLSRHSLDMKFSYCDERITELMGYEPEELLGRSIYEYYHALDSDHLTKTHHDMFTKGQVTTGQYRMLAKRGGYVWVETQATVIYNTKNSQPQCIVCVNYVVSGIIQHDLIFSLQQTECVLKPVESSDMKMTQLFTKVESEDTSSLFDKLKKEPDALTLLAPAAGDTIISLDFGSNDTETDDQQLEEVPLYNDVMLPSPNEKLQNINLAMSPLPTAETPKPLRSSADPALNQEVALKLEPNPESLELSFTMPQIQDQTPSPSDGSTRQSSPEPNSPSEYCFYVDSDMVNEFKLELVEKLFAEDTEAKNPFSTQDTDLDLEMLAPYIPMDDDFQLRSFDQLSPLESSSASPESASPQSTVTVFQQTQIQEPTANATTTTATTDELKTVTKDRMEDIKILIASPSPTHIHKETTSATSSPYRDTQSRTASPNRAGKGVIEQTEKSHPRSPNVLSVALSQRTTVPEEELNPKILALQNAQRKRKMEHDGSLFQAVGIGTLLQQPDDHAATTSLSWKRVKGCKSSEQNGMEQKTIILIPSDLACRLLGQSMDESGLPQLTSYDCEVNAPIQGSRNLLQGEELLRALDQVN
T2 sequence (Q16665 238-349): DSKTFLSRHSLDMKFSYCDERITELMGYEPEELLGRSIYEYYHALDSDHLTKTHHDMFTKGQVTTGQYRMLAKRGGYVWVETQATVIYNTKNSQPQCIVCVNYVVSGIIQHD

What is called pIC50 is the negative decadic logarithm of the IC50, by convention in mol/L. A high value points to a low IC50. Regarding `CC[C@H](C)[C@@H]1NC(=O)[C@H](CC(C)C)NC(=O)[C@H](CCCNC(=N)N)NC(=O)[C@H](CS)NC(=O)[C@H](Cc2ccc(I)cc2)NC(=O)[C@H]([C@@H](C)CC)NC1=O` [Cyclic peptide #18, cyclo-cys agr leuileile (4-I)phe] (cyclo(CRLII[Phe(4-I)])), the “Stabilisation of HIF-1a by CETSA” value on HIF-1a is reported as “Stabilisation”. For the same compound, the “water solubility compared with the 4-benzyl compound” value in the data set “solubility (qualitative)” is “better water solubility”. Moreover, the “toxicity to cells in cell-viability assay” value in the data set with cells is “not toxic”. Further, the “improvement in affinity relative to the parent compound” value at HIF-1α PAS-B (238-349) worked out at 4.5 fold. In addition, the “loss in Kd compared to the 1α isoform” value on HIF-2α PAS-B (240-350) is listed as 2.2 fold. For the same compound, in data set [1], the negative-log IC50 (pIC50) was around 4.46.
